Assay results from patent US11992494B2, “Cyclopentathiophene carboxamide derivatives as platelet activating factor receptor antagonists” (Boehringer Ingelheim International GmbH, priority 2021, dated 2024).

Target: PAFR (Homo sapiens, UniProt P25105)
Assay: cellular HTRF IP1 assay: inhibition of PAFR activation by PAF C-16 ligand (endpoint assay)
Type: cell-based
Set-up: expressed in transfected cells; host or cells: HEK293
Experimental: The ability of compounds of formula (I) to inhibit the activation of the PAF receptor (PAFR) by the PAF C-16 ligand (PAF) is determined using the following cellular HTRF IP1 assay (IP1 Gq assay kit from Cisbio, Cat. no.: 62IP1APEJ) in assay buffer (1×HBSS, 20 mM Hepes, pH 7.4, 50 mM LiCl and containing 0.1% (w/v) BSA):
Evaluation of the Inhibition of PAFR Activation Using an Endpoint Assay
HEK293 cells overexpressing human PAFR (produced in-house) are seeded into a Poly-D-Lysine coated 384 well white cell culture microtiter assay plate with lid (15.000 cells per well). Subsequently, the plates are incubated over night at 37° C./5% CO2. On the next day, cells are being washed and subsequently, various concentrations of the test compounds (compounds in 100% DMSO; final concentration of DMSO in wells is 1%) are added to the assay plate via Echo 555 acoustic liquid handler. Plates are then incubated with lid for 90 minutes at 37° C./5% CO2. Thereafter, PAF ligand (Cayman Chemical Company, Item no.: 60900) is added at a final concentration of 11 nM. Plates are then incubated with lid for 60 minutes at 37° C./5% CO2. Then, 5 μl per well of Anti-IP1-Antibody-Cryptate solution and 5 μl per well of IP1-d2 solution are added to all wells of the plate and the plate is incubated for another 60 minutes light protected at room temperature. The emissions at 620 nm and 665 nm (Excitation wavelength: 320 nm) are measured using an Envision Reader (PerkinElmer).

[1] = HEK293 cells overexpressing human PAFR, PAF ligand 11 nM, Table 2
[2] = dedicated head-to-head comparison assay run: cyclopropylene vs di-methyl / cyclobutylene analogues

Chain of PAFR (P25105 whole entry): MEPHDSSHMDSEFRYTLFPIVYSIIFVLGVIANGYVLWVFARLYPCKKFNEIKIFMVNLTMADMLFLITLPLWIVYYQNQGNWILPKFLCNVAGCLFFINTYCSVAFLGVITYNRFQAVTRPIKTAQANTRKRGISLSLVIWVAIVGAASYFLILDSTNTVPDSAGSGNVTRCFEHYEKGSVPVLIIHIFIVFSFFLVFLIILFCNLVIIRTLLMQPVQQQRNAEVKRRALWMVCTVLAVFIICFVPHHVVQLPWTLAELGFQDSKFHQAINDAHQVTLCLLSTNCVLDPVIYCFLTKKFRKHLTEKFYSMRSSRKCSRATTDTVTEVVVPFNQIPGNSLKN

| SMILES | IC50 [1] | IC50 [2] |
| --- | --- | --- |
| Cc1nnc2n1-c1sc3c(c1C(c1ccccc1Cl)=NC21CC1)C[C@H](C(=O)NC1CCc2ncsc2C1)C3 (stereo partly shown) [Example 34] | 3.8 nM |  |
| Cc1nnc2n1-c1sc3c(c1C(c1ccccc1Cl)=NC21CC1)C[C@H](C(=O)N[C@H]1COCC(F)(F)C1)C3 [Example 116] | 3.9 nM |  |
| Cc1nnc2n1-c1sc3c(c1C(c1ccccc1Cl)=NC21CC1)C[C@H](C(=O)N1CCOC(C)(C)C1)C3 [Example 10] | 5.2 nM |  |
| Cc1nnc2n1-c1sc3c(c1C(c1ccccc1Cl)=NC21CC1)C[C@H](C(=O)N[C@@H]1CCc2c1ccnc2N)C3 [Example 103] | 14 nM |  |
| Cc1nnc2n1-c1sc3c(c1C(c1ccccc1Cl)=NC21CC1)C[C@H](C(=O)NC1(C(C)(C)O)CC1)C3 [Example 122, (13′S)-9′-(2-chlorophenyl)-N-[1-(2-hydroxy-propan-2-yl)cyclopropyl]-3′-methyl-16′-thia-2′,4′,5′,8′-tetraazaspiro[cyclopropane-1,7′-tetracyclo[8.6.0.0^2,6.0^11,15]hexadecane]-1′(10′),3′,5′,8′,11′(15′)-pentaene-13′-carboxamide] | 37 nM |  |
| Cc1nnc2n1-c1sc3c(c1C(c1ccccc1Cl)=NC21CC1)C[C@H](C(=O)NC1CCC12CCOCC2)C3 (stereo partly shown) [Example 64] | 8.6 nM |  |
| Cc1noc(C)c1NC(=O)[C@@H]1Cc2sc3c(c2C1)C(c1ccccc1Cl)=NC1(CC1)c1nnc(C)n1-3 [Example 128] | 5.7 nM | 5.5 nM |
| Cc1nnc2n1-c1sc3c(c1C(c1ccccc1Cl)=NC21CC1)C[C@H](C(=O)N[C@@H]1CCc2cc(C#N)ccc21)C3 [Example 63] | 1.7 nM |  |
| Cc1nnc2n1-c1sc3c(c1C(c1ccccc1Cl)=NC21CC1)C[C@H](C(=O)NC1(C(F)(F)F)CC1)C3 [Example 16] | 4.1 nM |  |
| Cc1nnc2n1-c1sc3c(c1C(c1ccccc1Cl)=NC21CC1)C[C@H](C(=O)N[C@H]1C[C@H](S(C)(=O)=O)C1)C3 [Example 113] | 28 nM |  |
| Cc1nnc2n1-c1sc3c(c1C(c1ccccc1Cl)=NC2(C)C)C[C@H](C(=O)N1CCC(F)(F)CC1)C3 [reference compound] |  | 30 nM |
| Cc1nnc2n1-c1sc3c(c1C(c1ccccc1Cl)=NC21CC1)C[C@H](C(=O)N[C@H]1CCc2c(F)cccc21)C3 [Example 92] | 0.9 nM |  |
| CCn1ncc2c1CC[C@@H](NC(=O)[C@@H]1Cc3sc4c(c3C1)C(c1ccccc1Cl)=NC1(CC1)c1nnc(C)n1-4)C2 [Example 99] | 8.1 nM |  |
| Cc1nnc2n1-c1sc3c(c1C(c1ccccc1Cl)=NC21CC1)C[C@H](C(=O)N[C@H]1C[C@@H]1c1ccccc1)C3 [Example 17] | 1.2 nM |  |
| Cc1nnc2n1-c1sc3c(c1C(c1ccccc1Cl)=NC2(C)C)C[C@H](C(=O)NC1CCOCC1)C3 [reference compound] |  | 65 nM |
| Cc1nnc2n1-c1sc3c(c1C(c1ccccc1Cl)=NC21CC1)C[C@H](C(=O)NC1(c2cccc(F)c2)CC1)C3 [Example 56] | 1.1 nM |  |
| Cc1nnc2n1-c1sc3c(c1C(c1ccccc1Cl)=NC21CC1)C[C@H](C(=O)NC1(CO)CCCCC1)C3 [Example 71] | 3.9 nM |  |
| Cc1nnc2n1-c1sc3c(c1C(c1ccccc1Cl)=NC2(C)C)C[C@H](C(=O)NC1CCC1)C3 [reference compound] |  | 7.6 nM |
| Cc1cc2n(n1)CC(NC(=O)[C@@H]1Cc3sc4c(c3C1)C(c1ccccc1Cl)=NC1(CC1)c1nnc(C)n1-4)CC2 (stereo partly shown) [Example 23] | 9.9 nM |  |
| Cc1nnc2n1-c1sc3c(c1C(c1ccccc1Cl)=NC21CCC1)C[C@H](C(=O)N1CCOCC1)C3 [comparative example 2, reference compound] |  | 59 nM |
| Cc1nnc2n1-c1sc3c(c1C(c1ccccc1Cl)=NC21CC1)C[C@H](C(=O)N[C@H]1COC[C@H]1c1ccccc1)C3 [Example 39] | 3.1 nM |  |
| Cc1nnc2n1-c1sc3c(c1C(c1cc(Br)ccc1Cl)=NC21CC1)C[C@H](C(=O)N1CCOCC1)C3 [Example 4, (13′S)-9′-(5-bromo-2-chlorophenyl)-3′-methyl-13′-(morpholine-4-carbonyl)-16′-thia-2′,4′,5′,8′-tetraazaspiro[cyclopropane-1,7′-tetracyclo[8.6.0.0^2,6.0^11,15]hexadecane]-1′(10′)3′,5′,8′,11′(15′)-pentaene] | 26 nM |  |
| CCn1ncc2c1CC[C@H](NC(=O)[C@@H]1Cc3sc4c(c3C1)C(c1ccccc1Cl)=NC1(CC1)c1nnc(C)n1-4)C2 [Example 100] | 22 nM |  |
| Cc1nnc2n1-c1sc3c(c1C(c1ccccc1Cl)=NC21CC1)C[C@H](C(=O)N[C@H]1CCN(c2ncccn2)C1)C3 [Example 62] | 6.5 nM |  |
| Cc1nnc2n1-c1sc3c(c1C(c1ccccc1Cl)=NC2(C)C)C[C@H](C(=O)NC1(c2ccccn2)CC1)C3 [reference compound] |  | 26 nM |
| CC[C@@H]1C[C@H]2O[C@@H]1C[C@H]2NC(=O)[C@@H]1Cc2sc3c(c2C1)C(c1ccccc1Cl)=NC1(CC1)c1nnc(C)n1-3 [Example 101] | 6 nM |  |

Now from value to molecule:

| IC50 [1] | IC50 [2] | SMILES |
| --- | --- | --- |
| 5 nM |  | Cc1nnc2n1-c1sc3c(c1C(c1ccccc1Cl)=NC21CC1)C[C@H](C(=O)N1C[C@@H](C)O[C@H](C)C1)C3 [Example 123, (13′S)-9′-(2-chlorophenyl)-13′-[(2R,6R)-2,6-dimethylmorpholine-4-carbonyl]-3′-methyl-16′-thia-2′,4′,5′,8′-tetraazaspiro[cyclopropane-1,7′-tetracyclo[8.6.0.02,6.011,15]hexadecane]-1′(10′),3′,5′,8′,11′(15′)-pentaene] |
| 2.6 nM |  | Cc1nnc2n1-c1sc3c(c1C(c1ccccc1Cl)=NC21CC1)C[C@H](C(=O)N[C@H]1CC[C@@H](F)C1)C3 [Example 70] |
| 1.1 nM |  | CCC12CC(NC(=O)[C@@H]3Cc4sc5c(c4C3)C(c3ccccc3Cl)=NC3(CC3)c3nnc(C)n3-5)(C1)C2 [Example 109] |
| 1.6 nM |  | Cc1nnc2n1-c1sc3c(c1C(c1ccccc1Cl)=NC21CC1)C[C@H](C(=O)NC1CCC1(C)C)C3 (stereo partly shown) [Example 47] |
| 2.8 nM |  | Cc1nnc2n1-c1sc3c(c1C(c1ccccc1Cl)=NC21CC1)C[C@H](C(=O)N1CC(C)(C)C1)C3 [Example 65] |
| 2.7 nM |  | Cc1nnc2n1-c1sc3c(c1C(c1ccccc1Cl)=NC21CC1)C[C@H](C(=O)N[C@@H]1C[C@H]1C)C3 [Example 107] |
| 1.9 nM |  | Cc1nnc2n1-c1sc3c(c1C(c1ccccc1Cl)=NC21CC1)C[C@H](C(=O)NC1CCCC1)C3 [Example 14] |
| 5.1 nM |  | Cc1nnc2n1-c1sc3c(c1C(c1ccccc1Cl)=NC21CC1)C[C@H](C(=O)N[C@H]1COC[C@H]1C(C)C)C3 [Example 88] |
| 11 nM |  | CCN(C(=O)[C@@H]1Cc2sc3c(c2C1)C(c1ccccc1Cl)=NC1(CC1)c1nnc(C)n1-3)[C@H]1CC[C@H](O)CC1 [Example 20] |
| 6.9 nM |  | CCN(C(=O)[C@@H]1Cc2sc3c(c2C1)C(c1ccccc1Cl)=NC1(CC1)c1nnc(C)n1-3)C1CCOCC1 [Example 83] |
| 15 nM |  | Cc1nnc2n1-c1sc3c(c1C(c1ccccc1Cl)=NC21CC1)C[C@H](C(=O)N[C@H]1CCOC1)C3 [Example 78] |
| 2.4 nM | 2.3 nM | CCCNC(=O)[C@@H]1Cc2sc3c(c2C1)C(c1ccccc1Cl)=NC1(CC1)c1nnc(C)n1-3 [Example 66] |
| 2 nM |  | Cc1nnc2n1-c1sc3c(c1C(c1ccccc1Cl)=NC21CC1)C[C@H](C(=O)NC1CC2(CCC2)C1)C3 [Example 80] |
| 4.9 nM |  | CCOC(=O)N1CCC(N(C)C(=O)[C@@H]2Cc3sc4c(c3C2)C(c2ccccc2Cl)=NC2(CC2)c2nnc(C)n2-4)CC1 [Example 72] |
| 30 nM |  | Cc1nnc2n1-c1sc3c(c1C(c1ccccc1Cl)=NC21CC1)C[C@H](C(=O)NC1CCCS(=O)(=O)C1)C3 (stereo partly drawn) [Example 121, (13′S)-9′-(2-chlorophenyl)-N-(1,1-dioxo-1lambda6-thian-3-yl)-3′-methyl-16′-thia-2′,4′,5′,8′-tetraazaspiro[cyclopropane-1,7′-tetra-cyclo[8.6.0.0^2,6.0^11,15]hexadecane]-1′(10′),3′,5′,8′,11′(15′)-pentaene-13′-carboxamide] |
| 22 nM | 11.9 nM | Cc1nnc2n1-c1sc3c(c1C(c1ccccc1Cl)=NC21CC1)C[C@H](C(=O)N(C)[C@H]1CC[C@H](O)CC1)C3 [Example 112] |
| 1.3 nM |  | Cc1nnc2n1-c1sc3c(c1C(c1ccccc1Cl)=NC21CC1)C[C@H](C(=O)NC1(C)CCCC1)C3 [Example 26] |
| 7.2 nM |  | Cc1nnc2n1-c1sc3c(c1C(c1ccccc1Cl)=NC21CC1)C[C@H](C(=O)N[C@@H]1COC[C@@H]1C)C3 [Example 30] |
| 1.6 nM |  | Cc1nnc2n1-c1sc3c(c1C(c1ccccc1Cl)=NC21CC1)C[C@H](C(=O)NC1[C@H]2CCC[C@@H]12)C3 (stereo partly shown) [Example 19] |
| 1.1 nM |  | Cc1nnc2n1-c1sc3c(c1C(c1ccccc1Cl)=NC21CC1)C[C@H](C(=O)N(C)C1CCC1)C3 [Example 21] |
| 3.6 nM |  | CCN(C(=O)[C@@H]1Cc2sc3c(c2C1)C(c1ccccc1Cl)=NC1(CC1)c1nnc(C)n1-3)[C@@H]1c2ccccc2C[C@H]1O [Example 81] |
| 1.6 nM |  | Cc1nnc2n1-c1sc3c(c1C(c1ccccc1Cl)=NC21CC1)C[C@H](C(=O)NC1(C)CCC1)C3 [Example 38] |
| 1.6 nM |  | Cc1nnc2n1-c1sc3c(c1C(c1ccccc1Cl)=NC21CC1)C[C@H](C(=O)NC1CCCCC1)C3 [Example 59] |
